Measurements: PubChem BioAssay AID652053 (Broad Institute, 2013)

Each molecule was assayed on Huh7 psiCHECK-miR122 Renilla luciferase reporter, 48 h (assay: suppression of miR-122 activity, Renilla luciferase sensor – cell-based, Huh7 psiCHECK-miR122, cherry-pick, dose response (AID 652053)).
With `C[C@@H]1CN([C@H](C)CO)C(=O)c2cc(NC(=O)c3ccncc3)ccc2O[C@@H]1CN(C)S(=O)(=O)c1ccc(Cl)cc1` the AC40 was 1.63 µM.
Molecule `COc1ccc(S(=O)(=O)NCCc2c(C)nn(C)c2Oc2ccccc2)cc1` has an AC40 of 4.82 µM.
`COc1ccc(C(=O)NC(=S)Nc2ccc(S(=O)(=O)Nc3cc(OC)ncn3)cc2)cc1` was tested, and the AC40 was 4.82 µM.
With `COc1ccc(NS(=O)(=O)c2cc(NC(=O)COc3ccc(OC)cc3)ccc2N2CCOCC2)cc1` the AC40 was 2.62 µM.
For `COc1ccc(C)cc1NS(=O)(=O)c1ccc2c(c1)CCN2C(C)=O`, the AC40 was 8.33 µM.
`C[C@H](CO)N1C[C@H](C)[C@@H](CN(C)Cc2ccc(C(=O)Nc3ccccc3N)cc2)Oc2ccc(N(C)C)cc2CC1=O` gave an AC40 of 11.3 µM.
`COc1ccc(C)cc1S(=O)(=O)Nc1cc(Cl)ccc1Cl` showed an AC40 of 2.5 µM.
With `CC(NC(=O)COc1ccccc1)C(=O)OCC(=O)c1cc2ccccc2o1` (stereo not drawn) the AC40 was 33.5 µM.
`C[C@@H]1CN([C@@H](C)CO)C(=O)c2cccc(NC(=O)Nc3ccc(F)cc3)c2O[C@H]1CN(C)Cc1ccc(C(F)(F)F)cc1` showed an AC40 of 3.97 µM.
`O=C(Nc1ccc(F)cc1)N1C[C@H]2[C@@H](c3ccccc31)[C@@H](CO)N2C(=O)c1ccc(F)cc1` showed an AC40 of 10.9 µM.
`CCN(CC)S(=O)(=O)c1cc(NS(=O)(=O)c2cccc(Cl)c2)ccc1C` showed an AC40 of 8.63 µM.
`Cc1ccccc1NC(=O)Nc1ccc2c(c1)C(=O)N(C)[C@H]1CC[C@H](CC(=O)NCC3CC3)O[C@H]1CO2` gave an AC40 of 1.87 µM.
Molecule `COc1ccc(NS(=O)(=O)c2cc(NC(=O)CCc3ccc(OC)c(OC)c3)ccc2N2CCOCC2)cc1` has an AC40 of 1.77 µM.
For `C[C@H](CO)N1C[C@H](C)[C@H](CN(C)Cc2ccc(C(=O)Nc3ccccc3N)cc2)Oc2ccc(NC(=O)Nc3ccc(F)cc3)cc2CC1=O`, the AC40 was 9.84 µM.
In the case of `COc1ccc(NS(=O)(=O)c2cc(-c3cnc(C4CC4)o3)ccc2C)cc1`, the AC40 was 5.35 µM.
For `COc1ccc(S(=O)(=O)Nc2ccc3c(c2)CC(=O)N([C@H](C)CO)C[C@H](C)[C@H](CN(C)Cc2ccc(C(=O)Nc4ccccc4N)cc2)O3)cc1`, the AC40 was 10.5 µM.
Molecule `CN(c1cccc(NC(=O)c2ccc(Cl)c(S(=O)(=O)Nc3ccccc3)c2)c1)S(C)(=O)=O` has an AC40 of 2.18 µM.
In the case of `CNC(=S)Nc1ccc(N2CCCC2)c(S(=O)(=O)Nc2ccc(OC)cc2)c1`, the AC40 was 1.31 µM.
In the case of `Clc1cccc(Cl)c1CSc1nnc(CN2CCOCC2)n1-c1ccccc1`, the AC40 was 10.4 µM.
Work on `Cc1ccc(S(=O)(=O)Nc2ccc(C(=O)Nc3cc(C)on3)cc2)cc1` yielded an AC40 of 1.44 µM.
With `C[C@H]1CN([C@@H](C)CO)S(=O)(=O)c2ccc(C#CCN(C)C)cc2O[C@@H]1CN(C)Cc1ccc2c(c1)OCO2` the AC40 was 3.68 µM.
Molecule `COc1ccc(NS(=O)(=O)c2cc(NC(=O)c3ccc(Cl)cc3)ccc2N2CCOCC2)cc1` has an AC40 of less than 0.26 µM.
`CN1CCN(C(=O)c2cc3nc(-c4ccccc4)cc(-c4ccccc4)n3n2)CC1` showed an AC40 of 2.23 µM.
`O=C(Cc1ccccc1)N1C[C@H]2[C@@H](c3ccccc31)[C@@H](CO)N2C(=O)C1CCCCC1` gave an AC40 of 6.07 µM.
For `C[C@H](CO)N1C[C@H](C)[C@H](CN(C)Cc2ccc(C(=O)Nc3ccccc3N)cc2)Oc2c(cccc2N(C)C)C1=O`, the AC40 was 8.75 µM.
For `Cc1ccc(-c2n[nH]c(=O)c3ccccc23)cc1S(=O)(=O)NCCN1CCOCC1`, the AC40 was 15.4 µM.
Molecule `Cc1ccc(NS(=O)(=O)c2cc(C(=O)Nc3cccc([N+](=O)[O-])c3)ccc2C)cc1` has an AC40 of 2.5 µM.
In the case of `C[C@@H]1CN([C@H](C)CO)C(=O)c2cc(N(C)C)ccc2O[C@H]1CN(C)Cc1ccc(C(=O)Nc2ccccc2N)cc1`, the AC40 was 1.96 µM.
In the case of `COc1cc(C)c(C(C)C)cc1S(=O)(=O)n1cnc(C)c1`, the AC40 was 2.65 µM.
`CCOc1ccc(NS(=O)(=O)c2cc(C)c(C)cc2C)cc1` gave an AC40 of 2.04 µM.
Molecule `COc1ccc(S(=O)(=O)N(C)C[C@H]2Oc3ccc(N(C)C)cc3C(=O)N([C@H](C)CO)C[C@@H]2C)cc1` has an AC40 of 9.52 µM.
In the case of `Cc1cc(S(=O)(=O)NC2CCCCC2)c(C)s1`, the AC40 was 1.44 µM.
For `C[C@H](CO)N1C[C@H](C)[C@H](CN(C)Cc2ccc(C(=O)Nc3ccccc3N)cc2)Oc2ccc(NC(=O)Nc3ccccc3)cc2CC1=O`, the AC40 was 5.91 µM.
For `CCOc1cc(S(=O)(=O)NCCc2ccccc2C)c(OCC)cc1-n1cnnn1`, the AC40 was 2.52 µM.
Work on `CCCCNS(=O)(=O)c1ccc2nc(SCC(=O)Nc3sccc3C#N)[nH]c2c1` yielded an AC40 of 0.553 µM.
Work on `Cc1ccc(C)c(S(=O)(=O)NCCCc2ccccc2)c1` yielded an AC40 of 3.15 µM.
`Cc1ccc(S(=O)(=O)Nc2ccc3c4c(cccc24)CC3)c(C)c1` gave an AC40 of 6.8 µM.
Work on `O=S(=O)(c1ccccc1)N(CC(O)COc1ccccc1)c1ccccc1` (stereo not drawn) yielded an AC40 of 18.9 µM.
Work on `CCCCCNS(=O)(=O)c1cc2c3c(c1)CCC(=O)N3CCC2` yielded an AC40 of 4.75 µM.
With `COc1cccc(S(=O)(=O)Nc2ccc(C(O)(C(F)(F)F)C(F)(F)F)cc2)c1` the AC40 was 4.24 µM.
`O=S(=O)(NCC1CCCO1)c1cc(Br)c(Br)s1` (stereo not drawn) showed an AC40 of 4 µM.
Work on `CC1CCCN(C(=O)Cn2nnc(-c3cccnc3)n2)C1` (stereo not drawn) yielded an AC40 of 14.4 µM.
`CCc1ccc(OC)c(S(=O)(=O)Nc2ccccc2C)c1` showed an AC40 of 1.03 µM.
Molecule `COC(=O)c1[nH]c2ccccc2c1NC(=O)CN1CCCc2ccccc21` has an AC40 of 21.5 µM.
In the case of `Cc1cc(C)cc(NS(=O)(=O)c2ccc(NC(=S)NC(=O)c3ccc(Br)o3)cc2)c1`, the AC40 was 0.769 µM.
Molecule `COc1ccc(NC(=O)c2cccc(S(=O)(=O)Nc3ccc(Br)cc3)c2)cn1` has an AC40 of 2.11 µM.
With `O=S(=O)(c1ccccc1)c1cc(O)ccc1O` the AC40 was 11.5 µM.
`C[C@@H]1CN([C@@H](C)CO)C(=O)Cc2cc(NC(=O)Nc3ccc(C(F)(F)F)cc3)ccc2O[C@@H]1CN(C)C(=O)Nc1cccc2ccccc12` gave an AC40 of 4.39 µM.
